Experimental findings from patent US20220016200A1, “PHARMACEUTICAL COMPOSITION FOR THE TREATMENT OF CYSTIC FIBROSIS” (GALENUS G.H. AG, priority 2018, published 2022) are described below.

Like-named read-outs stand apart in the source and are kept apart here. Bridge positions count the residues as written; N and C are the ends. Square brackets hold non-standard residues; d marks the D form. Peptide text beside a SMILES is read from it. * marks the point of attachment. Heptanoyl(5-Me) = CCC(C)CCCC(=O)*; Dab = NCC[C@H](N)C(=O)O

One assay has as its system A. junii 1397597. Nature of the assay: Checkerboard fusidic acid (FD) and colistin sulfate (CS), MIC/FIC and MBC/FBC. Type of assay: cell-based, Acinetobacter junii. On the procedure: (§1) Checkerboard assays between fusidic acid (FD) and colistin sulfate (CS) with a bacterial load 5(1-10)*10^5 CFU/ml in cationic adapted Mueller Hinton broth (CAMHB). • a. Antimicrobial stock solutions were prepared using sterile distilled water; • b. CS was added along the ordinate; FD was added along the abscissa to 96 well, flat bottom, polystyrene panels with no treatment. Colistin alone was tested in triplicates; • c. Serial 2-fold dilutions starting with 640 […] CS and 640 μg/ml FD were made; 15 μl volume of the serial dilutions were added for each agent to the appropriate wells—final volume at 30 μl; • d. For each agent tested alone an additional 15 μl media was added to the well. 30 μl were added in control wells where none of the agent was tested. The negative control well contains 150 μl media without any additions; • e. From an overnight bacterial culture in tryptic soy broth, 100 μL was added to 10 mL of fresh tryptic soy broth. This was then incubated at 37° C. for 1.5 hour at 180 rpm; • f. Bacteria in 120 μl CAMHB were added to each well (end concentration 5(1-10)*10^5 CFU/ml); • g. Plates were incubated at 37° C. in an ambient air incubator for 24 h • h. Turbidity at OD600 is determined with a plate photometer • i. By using a one-time inoculator 3 μl from each well of the 96-well plate were transferred to three blood agar plates. The plates were incubated over night at 37° C. in an ambient air incubator; • j. MIC values are defined as lowest concentration which restricts bacterial growth to OD600≤0.1; • k. MBC values were determined by visual reading the lowest concentration which inhibits 99.9% of the growth of bacteria in the wells; • l. Determination of the fractional inhibitory concentration (FIC) index and fractional bactericidal concentration (FBC) index and characterization of antimicrobial interactions was assessed;
(§2) FIC calculation was carried out as: (MIC of drug A, tested in combination)/(MIC of drug A, tested alone)+(MIC of drug B, tested in combination)/(MIC of drug B, tested alone). FBC calculation was carried out just as well;
(§3) Interactive categories were calculated from checkerboard analysis using MIC results from testing each agent alone and MIC results from the combination wells adjacent to the wells with growth in them.
(§4) Determination of the fractional inhibitory concentration (FIC) index and fractional bactericidal concentration (FBC) index and characterization of antimicrobial interactions was assessed:
(§5) (ii) Indifference; FIC/FBC>0.5 to <4.0
(§6) (iii) Antagonism; FIC/FBC≥4.0
a. Acinetobacter junii 1391597 (IHMA), colistin resistant (CS 2/2-2/8)

Another assay concerns A. guillouiae 1285286. The description is as above. The format is cell-based, Acinetobacter guillouiae. The procedure: as §1, §2, §3, §4, §5, §6
d. Acinetobacter guillouiae 1285286 (IHMA), colistin resistant (2xCS 2/4)

The subject of assay [1] is A. nosocomialis strain (1204194 IHMA). The assay can be described thus: Colistin MIC of the susceptible strain used in the mouse model. Conditions: Acinetobacter nosocomialis; colistin susceptible A. nosocomialis strain 1204194 IHMA. The format is cell-based. The procedure: One colistin susceptible (MIC 1 mg/L) A. nosocomialis strain (1204194 IHMA) and one colistin resistant (MIC 4 mg/L) A. nosocomialis strain (1461911 IHMA) are used. […] Fresh brain heart infusion broth (Merck, Darmstadt, Germany) bacterial cultures, in an aerobic atmosphere in the logarithmic growth phase (4-5 hours) at 37° C., are adjusted to a concentration of 1.0×10^6 colony forming units (CFU)/mL, as verified by both spectrophotometry (OD600 0.01-0.02 nm) and colony counting.

The test system of another assay is S. maltophilia 1237289. The assay can be described thus: Checkerboard fusidic acid (FD) and colistin sulfate (CS), MIC/FIC. Type of assay: cell-based, Stenotrophomonas maltophilia. Conditions: for MIC: S. maltophilia 1237289, agent alone, CAMHB, 1*10^6 CFU/ml. On the procedure: as §1, §2, §3, §4, §5, §6
e. Stenotrophomonas maltophilia 1237289 (IHMA), colistin resistant (CS 2/4-4/8-8/8)

The subject of the next assay is S. maltophilia 1221783. Described as above. Type of assay: cell-based, Stenotrophomonas maltophilia. The note with it: agent alone, CAMHB, 1*10^6 CFU/ml, 24 h. The procedure:
Checkerboard assays between fusidic acid (FD) and colistin sulfate (CS) with a bacterial load 5(1-10)*10^5 CFU/ml in cationic adapted Mueller Hinton broth (CAMHB). • a. Antimicrobial stock solutions were prepared using sterile distilled water; • b. CS was added along the ordinate; FD was added along the abscissa to 96 well, flat bottom, polystyrene panels with no treatment. Colistin alone was tested in triplicates; • c. Serial 2-fold dilutions starting with 640 […] CS and 640 μg/ml FD were made; 15 μl volume of the serial dilutions were added for each agent to the appropriate wells—final volume at 30 μl; • d. For each agent tested alone an additional 15 μl media was added to the well. 30 μl were added in control wells where none of the agent was tested. […] Turbidity at OD600 is determined with a plate photometer • i. […] Determination of the fractional inhibitory concentration (FIC) index and fractional bactericidal concentration (FBC) index and characterization of antimicrobial interactions was assessed; […]
as §3
Determination of the fractional inhibitory concentration (FIC) index and fractional bactericidal concentration (FBC) index and characterization of antimicrobial interactions was assessed: […]

Regarding `CCC(C)CCCC(=O)N[C@@H](CCN)C(=O)N[C@H](C(=O)N[C@@H](CCN)C(=O)N[C@H]1CCNC(=O)[C@H]([C@@H](C)O)NC(=O)[C@H](CCN)NC(=O)[C@H](CCN)NC(=O)[C@H](CC(C)C)NC(=O)[C@@H](CC(C)C)NC(=O)[C@H](CCN)NC1=O)[C@@H](C)O` (stereo partly drawn) [CS, colistin sulphate] ({Heptanoyl(5-Me)}-[Dab]T[Dab][Dab][Dab][dL]L[Dab][Dab]T; lactam 4-C), the MIC with A. junii 1397597 (A. junii 1397597, agent alone, CAMHB, 1*10^6 CFU/ml, 24 h) was 2 mg/1l; in the assay with A. junii 1397597 (Acinetobacter junii, 1397597, organism list of Example 3, repeated determinations, read-out: Colistin CS MIC) it was 2 µg/mL; in the assay on A. guillouiae 1285286 (A. guillouiae 1285286, agent alone, CAMHB, 1*10^6 CFU/ml, 24 h), 2 mg/1l; in the assay with A. guillouiae 1285286 (organism list of Example 3, Acinetobacter guillouiae 1285286, 2x, read-out: Colistin CS MIC), 2 µg/mL; in assay [1], 1 µg/mL; in the assay with S. maltophilia 1237289 (24 h), 1 mg/1l. Besides, the MIC result is reported as “(4) mg/1l” in the assay on S. maltophilia 1237289 (after 48 h growth (values in brackets)) and 0.5 mg/1l in the assay with S. maltophilia 1221783. Further, the MBC is 2 µg/mL in the assay with A. junii 1397597 (Acinetobacter junii, 1397597, A. junii 1397597, agent alone, CAMHB, 1*10^6 CFU/ml); 4 µg/mL in the assay on A. guillouiae 1285286 (Acinetobacter guillouiae, 1285286, A. guillouiae, agent alone, CAMHB, 1*10^6 CFU/ml, read-out: MBC); 4 µg/mL in the assay with A. guillouiae 1285286 (organism list of Example 3, Acinetobacter guillouiae 1285286, 2x, read-out: Colistin CS MBC); 4 µg/mL in the assay with S. maltophilia 1237289 (Stenotrophomonas maltophilia, 1237289, organism list of Example 3, Stenotrophomonas maltophilia 1237289, repeated determinations).

Broadly, the MBC is the lowest tested concentration that kills the bacteria rather than only halting them.
